Type in all cases: cell-based, human
The test system of assay [1] is OVCA cell lines. In words: MTT assay of OVCA cell proliferation. As to conditions: data not shown; for cell proliferation (MTT assay): all the cell lines, same doses as the p80 experiment. As to the method: (§1) Rationale and Experiments: In order to assess the effects of various classes of chemotherapy on p80-containing OVCA cells and to elucidate the relationship between p80, EM, and OVCA proliferation, EM or tamoxifen or the NADPH-oxidase inhibitor diphenyleneiodonium treatment was carried out. […] The treatment was followed with Western blotting to determine the effect of each agent on p80 expression. To control for reduced cell numbers or changes in cell volume as confounding factors, results were calculated on the basis of p80 per mg protein or DNA in the cells.
To further test the relationship between p80 and OVCA proliferation, OVCA cells were treated with EGF and measured proliferation (MTT assay) and the expression of p80 (Western Blotting). Again, results were calculated on a per mg protein or DNA basis to avoid confounding. […] (2) E-M/ECC's and their roles as specific antimicrotubular agents will be tested.
(Formazan colour is commonly taken as a measure of viable cells.)

In assay [2] the test system is p80. In words: Western analysis of p80 expression in drug-treated SKOV3 cells. As to conditions: for expression of p80 (Western blotting): OVCA cells, calculated as p80 per mg protein or DNA; for expression of p80 (Western analysis): SKOV3, 24-hour treatment, compared to control DMSO-treated cells. Here is the method: FIG. 9. […] Rat brain extract was used as a positive control (lane e). MW=Molecular weight markers (High Range SDS-PAGE standard). Actin was detected as loading control.
Western Blot Analysis: The cell monolayer was lysed with lysis buffer containing six protease inhibitors (Protease Cocktail; Roche), incubated on ice for 10 min, and scraped with a rubber policeman. Cell lysate was collected and centrifuged at 12,000× g for 30 min. Supernatants were saved for SDS-PAGE and Western blot analysis, and pellets were extracted by SDS-PAGE sample buffer (minus reducing reagent). The total amount of protein in each extract was determined by the bicinchoninic acid (BCA) method. SDS-PAGE was performed, loading the same amount of total protein in the same volume into each sample well, using commercially available precast 4-15% gradient SDS-polyacrylamide gels (Bio Rad). High range SDS-PAGE standard (Bio Rad) was run as a standard. After electrophoresis, proteins were transferred onto a PVDF membrane. After transfer, the membrane was incubated with primary antibody, then washed, and incubated with peroxidase-labeled second antibody. Signals were visualized on Hyperfilm-ECL by the ECL-reagents (Amersham).
SDS-PAGE and Western Blot Analysis: The cell monolayer was lysed with lysis buffer containing 6 protease inhibitors (Boehringer-Mannheim). Cell lysate was collected by centrifugation after the supernatants were saved. The pellet was extracted by boiling with SDS-containing buffer. The total amount of protein in each extract was determined. SDS-PAGE was performed by loading the same amount of total protein into each sample well. After electrophoresis, proteins were electro-transferred onto a PVDF membrane. Then, the membrane was incubated with primary antibody, washed, and incubated with peroxidase conjugated horse anti-mouse IgG (H+L). Signals were developed with an enhanced luminescence reagent (ECL, Amersham) and visualized on Hyper ECL-Film. (Amersham). Signal density was measured and analyzed by a densitometer. Western analysis can furnish information on immunoreactivity and molecular size; therefore, this technique was often used for the first-line screening of the presence of p80. However, if there was any ambiguity about the cross-reactivity, the results were double checked with Northern blotting or RT-PCR with specific primers.
as §1

Assay [3] has as its system OVCA cell lines. In words: Flow cytometry of the cell cycle distribution of OVCA. As to conditions: all OVCA cell lines; 24 hours treatment; 1-100 μgm/ml; compared to control DMSO-treated cells. An excerpt:
Effect of EM on the cell cycle of OVCA. Rationale: Since EM's antiproliferative activity could be due to the disruption of mitosis and other crucial microtubule-dependent cellular functions, flow cytometry was used to investigate the effect of EM on the cell cycle distribution of OVCA. Experiments: Following EM administration (1-100/ μgm/ml) the flasks were trypsinized and all cells subjected to flow cytometry in the Yale Cancer Center Core laboratory. […] Conclusions: (1) EM induced cell cycle synchronization at G2/M. This was consistent with an action on OVCA microtubule associated proteins (MAP's). (2) Synchronization in G2/M raised the possibility of radio-sensitization (Barnes WM. PCR amplification of up to 35-Kb DNA with high fidelity and high yield from lambda bacteriophage templates. Proc Natl Acad Sci USA March 15; 91 (6): 2216-20, 1994; Mandelkow E, Mandelkow E-M. Microtubules and microtubule-associated proteins. Current Opinion in Cell Biology 7:72-81, 1995.
For orientation: Flow cytometry measures light scatter and fluorescence of single cells or particles in a stream.

Assay [4] concerns OVCA cell lines. In words: 3H-thymidine uptake in cultured OVCA cells. As to conditions: all OVCA cell lines; 1-100 μg/ml. From the text: Culture of OVCA cell lines and cell cultures. Rationale: In order to determine the efficacy of inhibiting human OVCA cells with drugs, four extensively characterized OVCA cell lines, three in-house lines, DK2NMA, BIXLER, BIX3 (all courtesy of Drs. S. Chambers and B. Kacinski), (Peter B. Kaufman, William, Wu, Donghern Kim, Leland J. Cseke. Molecular Biology and Medicine. CRC Press inc., Boca Raton, Florida Chapter 12:289-304, 1995) and SKOV3, obtained from American Type Culture Collection, were established in mono-layer culture. Experiments: In preparation for drug treatment, cell suspensions were thor-oughly dispersed, precisely counted and then seeded into another flask at the desired cell den-sity. Conclusion: The cell lines were established, and test drugs shown to predictably affect the cells. Results were produced that meet stringent reliability criteria, including precision i.e., small variability between replicates.
Inhibition of OVCA cell proliferation by EM (estrogen mustard). Rationale: Clini-cally, EM has modest systemic toxicity and has been partially effective in the treatment of advanced prostatic carcinoma. […] Therefore, the effect of EM on OVCA cells was studied. Experiments: 3H-thymidine uptake was used to test the effect of EM against cultured OVCA cells in a wide range of concentrations (1-100 μg/ml). […]

For assay [5], the system named is p80. In words: Western blotting of p80 in PMA-treated THP-1 cells. As to conditions: 10 ng/ml, 5 days. Here is the method:
(§2) FIG. 11. (Top): Light microscopy of THP-1 cells after treatment of PMA. A. untreated THP-1 cells; B. THP-1 cells treated with 10 ng for five days. (Middle): Western blotting analysis of p80 in PMA-treated THP-1 cells. M: protein markers, Lane 1. SKOV3 (OVCA) as p80 positive control, Lane 2. Untreated THP-1 cells, supernatant from the cell lysate. Lane 3. Untreated THP-1 cell, pellet from the cell lysate. Lane 4. 5 day-PMA (10 ng/ml) treated THP-1 cells, supernatant from the cell lysate. Lane 5:5 day-PMA (10ng/ml) treated THP-1 cells, pellet from the cell lysate. Lane 6: human brain protein extract as 350 kDa MAP1a control. Lanes 7-12 are duplications of Lane 1-7. Note: Before PMA treatment there is a thick 80 kDa band in Lane 2; after 5 days of PMA treatment, the 80 kDa band became undetectable. (Bottom): IF straining of THP-1 cells after 5 days treatment with PMA. A. Untreated THP-1 cells; B. PMA (10 ng/ml) treated THP-1 cells.
(§3) Terminal Differentiation of THP-1 leukemia cells was associated with decreased expression of p80. […] The slide was studied by a fluorescence microscope for the presence of the P80 and photographed. […] Before treatment with PMA, the cells were round with bright fluorescence (FIG. 11-a Bottom); after PMA treatment, the cells grew processes with no IF of P80 (FIG. 11b Bottom). […]
For orientation: Immunoblotting shows a protein as a band on a membrane.

Assay [6] relates to p80. In words: Immunofluorescence staining of p80 in PMA-treated THP-1 cells. To be noted: 10 ng/ml, 5 days. Here is the method: as §2, §3
Assay [7] deals with THP-1 promonocytic leukemia cell line. In words: Cell morphology/differentiation of THP-1 leukemia cells after PMA. To be noted: THP-1 cells; 10 ng/ml. As to the method: as §2, §3
Assay [8] deals with p80. Briefly: SDS-PAGE/Western blot of p80 in BIX3 OVCA cells after EGF treatment. As to conditions: per mg protein or DNA basis, compared to untreated control. Here is the method:
FIG. 10. SDS-PAGE/Western blot analysis of p80 in BIX3 OVCA cells following treatment with EGF, (see text). The lanes are as follows: (a) protein standards, (b) control-untreated, (c) EGF-treated. The density of p80 expression was increased after EGF treatment. Actin was detected as loading control.
Stimulation of expression of p80 by epidermal growth factor (EGF). […] To further test the relationship between p80 and OVCA proliferation, OVCA cells were treated with EGF and measured proliferation (MTT assay) and the expression of p80 (Western Blotting). Again, results were calculated on a per mg protein or DNA basis to avoid confounding. Findings: (1) Increasing doses of EGF (10-50 ng/ml) stimulated OVCA proliferation in comparison to untreated controls (data not shown). […] (2) E-M/ECC's and their roles as specific antimicrotubular agents will be tested. Alternative approaches, such as targeting this molecule by using antisense DNA/RNA to block its expression could be helpful in elucidating whether the expression of this protein is a cause or an effect of OVCA proliferation. Furthermore, the antisense approach may also lead to the development of a novel modality for OVCA therapy targeting p80.

“Also recorded” adds a separate entry of the source.

For the compound `c1ccc2c(c1)[I+]c1ccccc1-2` [DPI, diphenyleneiodonium], the “cell proliferation (MTT assay)” value with OVCA cell lines [1] was “significantly decreased”. In the assay with p80 [2], the “expression of p80 (Western blotting)” value is recorded as “significantly inhibited”. The “expression of p80 (Western analysis)” value in the assay with p80 [2] (10 μM) is “significant decreases”.

`C[C@]12CC[C@@H]3c4ccc(OC(=O)N(CCCl)CCCl)cc4CC[C@H]3[C@@H]1CC[C@@H]2O` [EM, estrogen mustard]: the “percentages of cells in G2/M phase” value in the assay with OVCA cell lines [3] is “significant increase”. Besides, the “cell proliferation (MTT assay)” value in the assay on OVCA cell lines [1] is listed as “significantly decreased”. Also, in the assay on OVCA cell lines [4], the 3H-thymidine incorporation entry was “marked, dose-dependent inhibition”. In addition, in the assay with p80 [2], the “expression of p80 (Western blotting)” value is on record as “significantly inhibited”. For the same compound, the “expression of p80 (Western analysis)” value in the assay with p80 [2] (10 μM) is “significant decreases”.

Consider `CCCCCCCCCCCCCC(=O)O[C@@H]1[C@@H](C)[C@@]2(O)[C@@H](C=C(CO)C[C@]3(O)C(=O)C(C)=C[C@@H]23)[C@@H]2C(C)(C)[C@]12OC(C)=O` [PMA, phorbol myristic acetate], for which the “p80 (80 kDa band) on Western blots” value with p80 [5] is “disappeared; also recorded: undetectable”. For the same compound, the “immunofluorescence (IF) of p80” value with p80 [6] is listed as “no IF of P80”. The “differentiation / cell morphology” value in assay [7] is recorded as “began to differentiate to monocytes/macrophages”.

Consider `CC/C(=C(\c1ccccc1)c1ccc(OCCN(C)C)cc1)c1ccccc1` [TMX, tamoxifen], for which, in the assay with OVCA cell lines [1], the “cell proliferation (MTT assay)” value is listed as “significantly decreased”. Further, the “expression of p80 (Western blotting)” value in the assay on p80 [2] is given as “significantly inhibited”. In addition, the “expression of p80 (Western analysis)” value in the assay on p80 [2] (100 μM) is on record as “significant decreases”.

With “epidermal growth factor (NSDSECPLSHDGYCLHDGVCMYIEALDKYACNCVVGYIGERCQYRDLKWWELR; Epidermal growth factor; UniProt P01133 971-1023, looked up) [EGF, growth factor; ovarian cancer cells have EGF receptors]”, in the assay with p80 [8], the “expression of p80 (Western blotting)” value is reported as “increased significantly”. In addition, the “OVCA proliferation (MTT assay)” value in the assay on OVCA cell lines [1] (10-50 ng/ml, increasing doses, compared to untreated controls) is recorded as “stimulated”.

These data come from US20240361324A1, “POINT OF SERVICE METHOD OF DETECTING, DIAGNOSING AND FOLLOWING CANCER AND OTHER PROLIFERATIVE CONDITIONS” (priority 2021, published 2024).
